From patent publication US12421253B2 (Mirati Therapeutics, Inc., priority 2020, dated 2025)

Columns and labels:
Assay in all cases: KRas binding assay (TR-FRET displacement of Cy5 labelled tracer)
KRas^G12V = target: T1, KRas^G12V (Homo sapiens, UniProt P01116, G12V)
T1 construct: […]; biotin (biotinylated); purchased Accelegan Inc

KRas^G12D = target: T2, KRas^G12D (Homo sapiens, UniProt P01116, G12D)
T2 construct: […]; biotin (biotinylated); purchased Accelegan Inc

KRas^G12R = target: T3, KRas^G12R (Homo sapiens, UniProt P01116, G12R)
T3 construct: […]; biotin (biotinylated); purchased Accelegan Inc
T3 sequence (P01116 1-169 isoform P01116-2 G12R): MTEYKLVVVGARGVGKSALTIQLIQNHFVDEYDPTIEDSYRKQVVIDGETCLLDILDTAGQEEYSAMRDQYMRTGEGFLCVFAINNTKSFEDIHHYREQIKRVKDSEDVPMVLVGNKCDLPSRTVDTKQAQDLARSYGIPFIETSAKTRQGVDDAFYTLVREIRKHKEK

T1 sequence (P01116 1-169 isoform P01116-2 G12V): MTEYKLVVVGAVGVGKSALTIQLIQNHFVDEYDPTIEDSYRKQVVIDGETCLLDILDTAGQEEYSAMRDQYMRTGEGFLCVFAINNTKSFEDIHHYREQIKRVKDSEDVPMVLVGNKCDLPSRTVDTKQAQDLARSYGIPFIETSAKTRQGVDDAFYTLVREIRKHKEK
T2 sequence (P01116 1-169 isoform P01116-2 G12D): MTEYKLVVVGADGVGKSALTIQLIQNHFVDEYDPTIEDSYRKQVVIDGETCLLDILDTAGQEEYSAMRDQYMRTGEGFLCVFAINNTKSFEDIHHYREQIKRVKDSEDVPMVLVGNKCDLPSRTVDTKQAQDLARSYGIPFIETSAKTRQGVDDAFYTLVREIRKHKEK

| IC50 (KRas^G12V) [nM] | IC50 (KRas^G12D) [nM] | IC50 (KRas^G12R) [nM] | SMILES |
| --- | --- | --- | --- |
| 8800 | 16600 | 8280 | CCc1cccc2cccc(N3CCc4c(nc(OCC56CCCN5CCC6)nc4NCC4(C)CSC4)C3)c12 [Example 171, 7-(8-ethylnaphthalen-1-yl)-N-((3-methylthietan-3-yl)methyl)-2-((tetrahydro-1H-pyrrolizin-7a(5H)-yl)methoxy)-5,6,7,8-tetrahydropyrido[3,4-d]pyrimidin-4-amine] |
| 7170 | 8480 | 5120 | CCc1cccc2cccc(N3CCc4c(nc(OCC56CCCN5CCC6)nc4NCCc4ccno4)C3)c12 [Example 169, 7-(8-ethylnaphthalen-1-yl)-N-(2-(isoxazol-5-yl)ethyl)-2-((tetrahydro-1H-pyrrolizin-7a(5H)-yl)methoxy)-5,6,7,8-tetrahydropyrido[3,4-d]pyrimidin-4-amine] |
| 5170 | 7110 | 3460 | CCc1cccc2cccc(N3CCc4c(nc(OCC56CCCN5CCC6)nc4N4CCCC(c5noc(C(F)(F)F)n5)C4)C3)c12 (stereo not drawn) [Example 163, 3-(1-(7-(8-ethylnaphthalen-1-yl)-2-((tetrahydro-1H-pyrrolizin-7a(5H)-yl)methoxy)-5,6,7,8-tetrahydropyrido[3,4-d]pyrimidin-4-yl)piperidin-3-yl)-5-(trifluoromethyl)-1,2,4-oxadiazole] |
| 7650 | 19100 | 8070 | CCc1cccc2cccc(N3CCc4c(nc(OCC56CCCN5CCC6)nc4Nc4cccnc4)C3)c12 [Example 5, 7-(8-ethylnaphthalen-1-yl)-2-((hexahydro-1H-pyrrolizin-7a-yl)methoxy)-N-(pyridin-3-yl)-5,6,7,8-tetrahydropyrido[3,4-d]pyrimidin-4-amine] |
| 90 | 97 | 127 | CCc1cccc2cccc(N3CCc4c(nc(OCC56CCCN5CCC6)nc4N4CCCC(C)(O)C4)C3)c12 (stereo not drawn) [Example 4, 1-(7-(8-ethylnaphthalen-1-yl)-2-((hexahydro-1H-pyrrolizin-7a-yl)methoxy)-5,6,7,8-tetrahydropyrido[3,4-d]pyrimidin-4-yl)-3-methylpiperidin-3-ol] |
| 118 | 558 | 54 | Oc1cc(N2CCc3c(nc(OC[C@@]45CCCN4C[C@H](F)C5)nc3N3CC4CC(O)CC3C4)C2)c2c(Br)c(F)ccc2c1 (single isomer, unassigned) [Example 214] |
| 17 | 16 | 25 | CCc1c(F)ccc2cccc(N3CCc4c(nc(OCC56CCCN5CCC6)nc4N4CCC[C@@](C)(O)C4)C3)c12 [Example 3, (R)-1-(7-(8-ethyl-7-fluoronaphthalen-1-yl)-2-((hexahydro-1H-pyrrolizin-7a-yl)methoxy)-5,6,7,8-tetrahydropyrido[3,4-d]pyrimidin-4-yl)-3-methylpiperidin-3-ol] |
| 38 | 287 | 24 | CCc1cccc2cccc(N3CCc4c(nc(OCC56CCCN5CCC6)nc4N4CCC(O)CC(CO)C4)C3)c12 (single isomer, unassigned) [Example 174, 1-(7-(8-ethylnaphthalen-1-yl)-2-((hexahydro-1H-pyrrolizin-7a-yl)methoxy)-5,6,7,8-tetrahydropyrido[3,4-d]pyrimidin-4-yl)-6-(hydroxymethyl)azepan-4-ol] |
| 188 | 740 | 165 | Oc1cc(N2CCc3c(nc(OC[C@@]45CCCN4C[C@H](F)C5)nc3N3CC4CC(O)CC3C4)C2)c2c(Cl)c(F)ccc2c1 (single isomer, unassigned) [Example 77] |
| 153 | 224 | 153 | CCc1cccc2cccc(N3CCc4c(nc(OCC56CCCN5CCC6)nc4N4CCC(O)CC(CO)C4)C3)c12 (single isomer, unassigned) [Example 172, 1-(7-(8-ethylnaphthalen-1-yl)-2-((hexahydro-1H-pyrrolizin-7a-yl)methoxy)-5,6,7,8-tetrahydropyrido[3,4-d]pyrimidin-4-yl)-6-(hydroxymethyl)azepan-4-ol] |
